US20250205349A1, “ANTI-HUMAN TROP2 ANTIBODY-CAMPTOTHECIN DRUG CONJUGATE AND MEDICAL USE THEREOF” (SYSTIMMUNE, INC., priority 2021, published 2025)
pIC50: −log10 of the molar value. Where two headings read alike, the source gives them in different places. Starred links: 1 amine or outer side, 2 acyl side, 3 side chain; linkers in the order of their positions; H or OH if unused. Non-standard residues stand in square brackets, D forms with d. Residues, ends and D or L forms follow the SMILES beside them. *: point of attachment. Exatecan = CC[C@@]1(O)C(=O)OCc2c1cc1n(c2=O)Cc2c-1nc1cc(F)c(C)c3c1c2[C@@H](N*)CC3; X1 = O=C(O)CNC[C@@H](C(=O)*)N1C(=O)C=CC1=O; X2 = C[C@H](OCN[*:1])C(=O)[*:2]

How the values were obtained:
[1] = tested on: Human non-small cell lung adenocarcinoma cell H1975; assay: In vitro inhibitory effect of Compound 5A, MTS; assay type: cell-based
Description: (§1) The UV light of the biosafety cabinet was turned on 30 min in advance, and then the ventilation system was enabled for 3 min. The growth medium, the detection medium, D-PBS and trypsin were preheated in a 37° C. constant-temperature water bath, and then had surface disinfected with alcohol and then placed in the biosafety cabinet. The cells with a confluence rate of about 80% were placed in the biosafety cabinet, the old culture medium was removed, the cells were rinsed with D-PBS, and the D-PBS was then discarded. The cells were digested with trypsin for 2-3 min, then neutralized with the growth medium and centrifuged at 1200 rpm for 3 min, and the supernatant was removed. The cell solution was mixed with 4 mL of test medium, and 100 μL of cell solution was taken for counting (where 50 μL of cell solution was well mixed with 50 μL of Trypan Blue Stain and then counted). According to a pre-optimized cell plating density, the cells were plated in a 96-well plate at 80 ul/well. […] After 24 hours of plating, diluted antibodies were added with 20 uL per well and control was set. Only 20 μL of test medium was added to cells in column 11. Two duplicate wells were set at each concentration. The cells were then well mixed on the cell vortex shaker at 550 rpm for 3 min.
(§2) 240 μL of test medium was added to the subsequent columns 2 to 10. 60 μL of the well mixed test solution was taken from the first column and added to the second column, and the cell solution was mixed up and down with a pipette for 10 times, and then the pipette tip was discarded. The same operation was performed for other seven concentrations one by one.
(§3) After 4 days, the MTS reagent was taken out, thawed at room temperature in the dark, and vortex mixed thoroughly. In the biosafety cabinet, 20 μL of CellTiter One Solution Reagen MTS reagent was added per 100 μL cell culture volume along the side wall of each well, and the plate surface was gently tapped to well mix the MTS solution. The cells were incubated for 2 h in the dark in an incubator. After the reaction, the 96-well plate was taken out for testing the OD490 nm absorption on an elisa plate, and the test data were recorded, organized, analyzed and stored.

[2] = tested on: human leukemia cell JJN-3; assay: In vitro inhibitory effect of Compound 5A, MTS; assay type: cell-based
Description: as §1, §2, §3

[3] = tested on: human breast cancer cell SK-BR-3; assay: In vitro inhibitory effect of Compound 5A, MTS; assay type: cell-based
Description: as §1, §2, §3

[4] = tested on: human breast cancer cell ZR-75-1; assay: In vitro inhibitory effect of Compound 5A, MTS; assay type: cell-based
Description: as §1, §2, §3

[5] = tested on: human plasma cell leukemia cell H929; assay: In vitro inhibitory effect of Compound 5A, MTS; assay type: cell-based
Description: as §1, §2, §3

[6] = tested on: human orthotopic pancreatic adenocarcinoma cell BXPC-3; assay: In vitro inhibitory effect of Compound 5A, MTS; assay type: cell-based
Description: as §1, §2, §3

[7] = tested on: human epidermal cancer cell A431; assay: In vitro inhibitory effect of Compound 5A, MTS; assay type: cell-based
Description: as §1, §2, §3

[8] = tested on: human breast cancer cell MDA-MB-361; assay: In vitro inhibitory effect of Compound 5A, MTS; assay type: cell-based
Description: as §1, §2, §3

[9] = tested on: human gastric cancer cell NCI-N87; assay: In vitro inhibitory effect of Compound 5A, MTS; assay type: cell-based
Description: as §1, §2, §3

[10] = tested on: human non-small cell lung cancer cell HCC827; assay: In vitro inhibitory effect of Compound 5A, MTS; assay type: cell-based
Description: as §1, §2, §3

[11] = tested on: human epidermal cancer cell A431 + human colon cancer cell SW620; assay: In vitro inhibitory effect of Compound 5A, MTS; assay type: cell-based
Description: as §1, §2, §3

[12] = tested on: human multiple myeloma cell RPMI8226; assay: In vitro inhibitory effect of Compound 5A, MTS; assay type: cell-based
Description: as §1, §2, §3

[13] = tested on: N87; assay: In vitro efficacy of naked antibodies and Compound d3, d38, d39 and d44, MTS; assay type: cell-based; conditions: Homo sapiens, 1 uM starting concentration
Description: (§4) In a 96-well plate, cells were plated at an appropriate cell density. After 24 h, the drugs were added. After 24 h, the drugs were diluted with the test medium (1 uM starting concentration, 5-fold dilution, 9 concentrations, test medium was added in the tenth column as blank control). The diluted drugs were added to the corresponding cell wells and then shaken for 3 min with a microplate shaker (model: MX100-4A) at a shaking speed of 550 rpm/min. After shaking, the cells were incubated in a carbon dioxide incubator for […].
(§5) After 4 days, the MTS reagent was taken out, thawed at room temperature in the dark, and vortex mixed thoroughly. […] The cells were incubated for 2 h in the dark in an incubator. After the reaction, the 96-well plate was taken out for testing the OD490 nm absorption on an elisa plate, and the test data were recorded, organized, analyzed and stored.

[14] = tested on: SW620; assay: as above; assay type: cell-based; conditions: Homo sapiens, SW-620, 1 uM starting concentration
Description: as §4, §5

[15] = tested on: HCC827; assay: as above; assay type: cell-based; conditions: Homo sapiens, 1 uM starting concentration
Description: as §4, §5

[16] = tested on: SW620 + A431; assay: as above; assay type: cell-based; conditions: Homo sapiens, 1 uM starting concentration
Description: as §4, §5

[17] = tested on: Fadu; assay: as above; assay type: cell-based; conditions: Homo sapiens, 1 uM starting concentration
Description: as §4, §5

[18] = Percentage of monomer of ADCs by SEC-HPLC; assay type: physicochemical
Description: • Chromatography column: Biocore SEC-300 5 μm, 4.6×300 mm; • Manufacturer: NanoChrom, Product code: B213-050030-04630S; • Mobile phase: 50 mM PB+300 mM NaCl+200 mM Arg+5% IPA, pH=6.5;
• Chromatography column: ACQUITY UPLC Protein SEC 4.6×150 mm […] • Manufacturer: waters Product code: 186005225 • Mobile phase: 50 mM PB+300 mM NaCl+200 mM Arg+5% IPA, pH=6.5

[19] = Description: The mixture of an ADC and IgG-depleted plasma were formulated with the final concentration of ADC being 0.6 mg/mL. The plasma mixture was incubated in a water bath box in a 37° C. incubator. The incubation time was set to 0 days, 3 days, and 7 days. At the same time, the unincubated plasma control was set. The incubated sample was purified and extracted and then tested for the DAR to reflect the stability of the ADC in plasma.
[20] = tested on: human tumor cell line (BxPC-3); assay: In vitro drug efficacy of antibodies and ADCs, MTS cell viability; assay type: cell-based; conditions: BxPC-3, 5 days
Description: In the present invention, a human tumor cell line (BxPC-3) was used as an experimental model to evaluate the in vitro efficacy of ADCs. A certain number of tumor cells were inoculated into a 96-well plate, and gradient dilutions of the test antibody and the corresponding ADC were added to the cells, the cells were treated for 5 days, cell viability was detected by using MTS, and IC50 was calculated to evaluate the in vitro inhibitory effect of the test antibody and ADCs on the tumor cell line. The cells were treated for 5 days with the antibody drugs having initial concentration of 500 nM, diluted 7 folds, with a total of 8 concentration points. Finally, the cell survival was calculated as: survival rate=(experimental group-blank group)/(control group-blank group)×100%. Then, by using Graph Pad Prism, the curve was fitted and the half inhibitory concentration (IC50) was calculated.

[21] = target: T1, recombinant TROP2-His*6 antigen (Homo sapiens, UniProt P09758); assay: Double-antigen sandwich ELISA, relative affinity to TROP2; assay type: binding; conditions: OD450 nm, EC50 compared
T1 construct: His*6
T1 sequence (P09758 27-323): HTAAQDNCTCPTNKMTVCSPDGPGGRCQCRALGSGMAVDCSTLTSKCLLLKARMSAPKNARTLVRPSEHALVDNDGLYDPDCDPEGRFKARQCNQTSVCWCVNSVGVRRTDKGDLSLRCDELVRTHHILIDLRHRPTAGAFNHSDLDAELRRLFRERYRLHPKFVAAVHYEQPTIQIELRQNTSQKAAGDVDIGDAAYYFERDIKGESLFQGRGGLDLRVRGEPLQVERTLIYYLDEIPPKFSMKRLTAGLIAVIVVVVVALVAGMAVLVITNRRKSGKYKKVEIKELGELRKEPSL
Description: The recombinant TROP2-His*6 antigen was coated on the plate and then blocked with 1% bovine serum albumin; hu4D3 and the corresponding ADC and TINA1 and the corresponding ADC were diluted respectively, and then serially diluted 3 folds at a starting concentration of 2000 ng/mL respectively, for a total of 11 concentrations. After the sample was incubated on the coated elisa plate for a period of time, the secondary antibody labeled by goat anti-human Fc-HRP was added for incubation. Finally, TMB color development was performed and terminated by sulfuric acid solution, and the absorption value at 450 nm was detected on an elisa plate. The results are plotted on concentration at OD450 nm.

[22] = humans; cited from earlier work
[23] = mice; cited from earlier work
[24] = in vivo; cited from earlier work

Work on `CC[C@@]1(O)C(=O)OCc2c1cc1n(c2=O)Cc2c-1nc1cc(F)c(C)c3c1c2[C@@H](NC(=O)[C@H](C)OCNC(=O)CNC(=O)[C@H](Cc1ccccc1)NC(=O)CNC(=O)CNC(=O)[C@H](CNCC(=O)O)N1C(=O)C=CC1=O)CC3` [Compound 5A] (X1-GGFG[X2]-Exatecan) yielded an Efficacy % ([1]; H1975) of 76.78%, a pIC50 ([1]; Homo sapiens, NCI-H1975, 96 h, H1975, 4 days, MTS) of 6.01 and a pIC50 ([2]; Homo sapiens, 96 h, JJN-3, 4 days, MTS) of 7.44. The Efficacy % ([2]; JJN-3) was 80.59%, the pIC50 ([3]; Homo sapiens, 96 h, SK-BR-3, 4 days, MTS) was 6.14 and the Efficacy % ([3]; SK-BR-3) was 70.9%. It also gave a pIC50 ([4]; Homo sapiens, 96 h, ZR-75-1, 4 days, MTS) of 6.25, an Efficacy % ([4]; ZR-75-1) of 54.79% and an Efficacy % ([5]; H929) of 99.03%. The pIC50 ([5]; Homo sapiens, NCI-H929, 96 h, H929, 4 days, MTS) was 7.62, the Efficacy % ([6]; BxPC-3) was 64.4% and the pIC50 ([6]; Homo sapiens, 96 h, BxPC-3, 4 days, MTS) was 6.49. It also gave an Efficacy % ([7]; A431) of 84.97%, a pIC50 ([7]; Homo sapiens, A-431, 96 h, A431, 4 days, MTS) of 6.36 and a pIC50 ([8]; Homo sapiens, 96 h, MDA-MB-361, 4 days, MTS) of 6.24. It also gave an Efficacy % ([8]; MDA-MB-361) of 62.34%, a pIC50 ([9]; Homo sapiens, 96 h, NCI-N87, 4 days, MTS) of 5.99 and an Efficacy % ([9]; NCI-N87) of 63.93%. It also gave an Efficacy % ([10]; HCC827) of 80.57%, a pIC50 ([10]; Homo sapiens, 96 h, HCC827, 4 days, MTS) of 6.18 and an Efficacy % ([11]; A431 + SW620) of 68.26%. It also gave a pIC50 ([11]; Homo sapiens, 96 h, A431 + SW620, 4 days, MTS) of 6.22, a pIC50 ([12]; Homo sapiens, RPMI-8226, 96 h, RPMI8226, 4 days, MTS) of 6.83 and an Efficacy % ([12]; RPMI8226) of 93.61%.
`CC[C@@]1(O)C(=O)OCc2c1cc1n(c2=O)Cc2c-1nc1cc(F)c(C)c3c1c2[C@@H](NC(=O)[C@H](C)O)CC3` [d3] gave an IC50 [13] of 1.61 nM, an IC50 [14] of 0.543 nM and an IC50 [15] of 0.778 nM. For the same molecule, the IC50 [16] was 2.81 nM and the IC50 [17] was 0.531 nM.
`CC[C@@]1(O)C(=O)OCc2c1cc1n(c2=O)Cc2c-1nc1cc(F)c(C)c3c1c2[C@H](NC(=O)[C@@H](O)C1CC1)CC3` [d39] showed an IC50 [13] of 0.466 nM, an IC50 [14] of less than 0.005 nM and an IC50 [15] of 0.092 nM. For the same molecule, the IC50 [16] was 0.468 nM and the IC50 [17] was 0.11 nM.
In the case of `CC[C@@]1(O)C(=O)OCc2c1cc1n(c2=O)Cc2c-1nc1cc(F)c(C)c3c1c2[C@H](NC(=O)C1(CO)CCC1)CC3` [d44], the IC50 [13] was 0.197 nM, the IC50 [14] was 0.014 nM and the IC50 [15] was 0.038 nM. For the same molecule, the IC50 [16] was 0.182 nM and the IC50 [17] was 0.029 nM.
DS1062a (DAR = 4) showed an Aggregate % [18] of 3.431%, a Degradation % [18] of 0.108% and a Monomer % [18] of 96.461%. The “DAR Incubated in plasma for 0 days” value ([19]; ADC 0.6 mg/mL in IgG-depleted plasma, 37° C., 0 days) was 4.21, the “DAR Incubated in plasma for 3 days” value ([19]; ADC 0.6 mg/mL in IgG-depleted plasma, 37° C., 3 days) was 3.75 and the “DAR Incubated in plasma for 7 days” value ([19]; ADC 0.6 mg/mL in IgG-depleted plasma, 37° C., 7 days) was 3.30. For the same molecule, the “DAR Unincubated” value ([19]; unincubated control) was 4.13.
With DS1062a [reference compound] the “plasma stability (in words)” value ([19]; change in DAR during incubation in plasma) was “poor plasma stability”, the pIC50 [20] was 6.51 and the “affinity for antigen TROP2 compared with the corresponding antibody” value [21] was “maintains the same affinity”.
In the case of IMMU-132, the elimination half-life [22] is given as “about 11 h”, the elimination half-life [23] is given as “about 11 h” and the mean residence time [24] is given as “about 15.4 h”.
